Measured values reported in ChEMBL document CHEMBL5143746, “SJPYT-195: A Designed Nuclear Receptor Degrader That Functions as a Molecular Glue Degrader of GSPT1” (ACS Med Chem Lett, 2022).
Each block holds one compound with its values, some of them ahead of it. The source made the active and inactive calls. The rule behind the calls is not given here.

Tests used:
[1] = biological target: Protein cereblon/DNA damage-binding protein 1 (Homo sapiens, UniProt Q96SW2); assay: Displacement of BODIPY FL thalidomide from 6His-tagged CRBN/DDB1 (unknown origin) expressed in baculovirus infected Sf9 insect cells incubated for 1 min under shaking condition followed by 60 mins incubation under dark condition by TR-FRET assay
[2] = biological target: T1, Nuclear receptor subfamily 1 group I member 2 (Homo sapiens, UniProt O75469); assay: Induction of PXR degradation in PXR knock in human SNU-C4 cells at 10 uM measured after 2 to 48 hrs by Western blot analysis; format: cell-based; conditions: snu-c4, 10 µM, time 2-48 hrs
T1 sequence (O75469 whole entry): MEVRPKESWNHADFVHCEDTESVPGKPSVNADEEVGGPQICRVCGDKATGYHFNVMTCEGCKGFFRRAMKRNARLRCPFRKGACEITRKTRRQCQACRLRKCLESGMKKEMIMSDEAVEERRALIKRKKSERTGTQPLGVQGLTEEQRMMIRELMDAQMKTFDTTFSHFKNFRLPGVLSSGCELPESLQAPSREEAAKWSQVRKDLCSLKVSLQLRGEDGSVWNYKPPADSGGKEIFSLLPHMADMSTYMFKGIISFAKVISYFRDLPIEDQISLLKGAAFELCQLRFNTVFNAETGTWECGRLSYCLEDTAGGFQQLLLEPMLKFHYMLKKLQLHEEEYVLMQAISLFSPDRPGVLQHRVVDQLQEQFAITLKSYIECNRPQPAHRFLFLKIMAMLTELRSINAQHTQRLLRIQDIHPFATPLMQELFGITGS

SNU-C4 [3] = assay: Down regulation of PXR mRNA expression in PXR knock in human SNU-C4 cells at 10 uM measured after 2 to 48 hrs by RT-qPCR analysis; format: functional, cell-based; conditions: time 2-48 hrs
[4] = biological target: Eukaryotic peptide chain release factor GTP-binding subunit ERF3A (Homo sapiens) (UniProt P15170); assay: Induction of GSPT1 degradation in PXR knock in human SNU-C4 cells at 0.001 to 10 uM measured after 24 hrs by Western blot analysis; format: cell-based; conditions: dose 0.001-10 µM
SNU-C4 [5] = assay: […] of GSPT1 expression in PXR knock in human SNU-C4 cells at 5 uM measured after 12 hrs by TMT-MS analysis; format: functional, cell-based
SNU-C4 [6] = assay: […] of ZFP91 expression in PXR knock in human SNU-C4 cells at 5 uM measured after 12 hrs by TMT-MS analysis; format: functional, cell-based
SNU-C4 [7] = assay: Up regulation of CYP1A1 expression in PXR knock in human SNU-C4 cells at 5 uM measured after 12 hrs by TMT-MS analysis; format: functional, cell-based
SNU-C4 [8] = assay: Cytotoxicity against PXR knock in human SNU-C4 cells measured after 72 hrs by celltiter-glo assay; format: functional
[9] = biological target: T2, Protein cereblon/Peptidyl-prolyl cis-trans isomerase FKBP1A/Nuclear receptor subfamily 1 group I member 2 (Homo sapiens, UniProt P62942+O75469+Q96SW2, F37V); assay: (§1) Molecular glue activity at HA-tagged CLR4-CRBN/2HA-tagged PXR fused HiBiT-tagged FKBP12 (F36V) mutant (unknown origin) expressed in HepG2 cells assessed as induction of PXR degradation measured after 24 hrs by Nano-Glo HiBiT assay; format: cell-based; conditions: hepg2, 24 h
SNU-C4 [10] = assay: […] of GSPT2 expression in PXR knock in human SNU-C4 cells at 5 uM measured after 12 hrs by TMT-MS analysis; format: functional, cell-based
SNU-C4 [11] = assay: Down regulation of FOS expression in PXR knock in human SNU-C4 cells at 5 uM measured after 12 hrs by TMT-MS analysis; format: functional, cell-based
SNU-C4 [12] = assay: Up regulation of BRIP1 expression in PXR knock in human SNU-C4 cells at 5 uM measured after 12 hrs by TMT-MS analysis; format: functional, cell-based
[13] = biological target: T1, Nuclear receptor subfamily 1 group I member 2; assay: Induction of PXR degradation in PXR knock in human SNU-C4 cells at 5 uM measured after 12 hrs by Western blot analysis relative to control; format: cell-based; conditions: snu-c4, 12 h
[14] = biological target: T1, Nuclear receptor subfamily 1 group I member 2; assay: Induction of PXR degradation in PXR knock in human SNU-C4 cells at 0.0001 to 1 uM measured after 24 hrs by Western blot analysis; format: cell-based; conditions: snu-c4, 24 h, dose 0.0001-1 µM
[15] = biological target: T2, Protein cereblon/Peptidyl-prolyl cis-trans isomerase FKBP1A/Nuclear receptor subfamily 1 group I member 2; assay: as §1, with “degradation by measuring change in FKBP-PXR expression at 10 uM” for “degradation”, “Western blot analysis relative to control” for “Nano-Glo HiBiT assay”; format: cell-based; conditions: hepg2, 24 h
[16] = biological target: T2, Protein cereblon/Peptidyl-prolyl cis-trans isomerase FKBP1A/Nuclear receptor subfamily 1 group I member 2; assay: as §1, with “degradation by measuring change in FKBP-PXR expression at 0.0001 uM” for “degradation”, “Western blot analysis relative to control” for “Nano-Glo HiBiT assay”; format: cell-based; conditions: hepg2, 24 h
HepG2 [17] = assay: Binding affinity to 2HA-tagged PXR fused HiBiT-tagged FKBP12 (F36V) mutant (unknown origin) expressed in HepG2 cells assessed as change in FKBP-PXR expression at 10 uM measured after 24 hrs by Western blot analysis relative to control; format: cell-based; conditions: Homo sapiens
HepG2 [18] = assay: Binding affinity to 2HA-tagged PXR fused HiBiT-tagged FKBP12 (F36V) mutant (unknown origin) expressed in HepG2 cells assessed as change in FKBP-PXR expression at 1 uM measured after 24 hrs by Western blot analysis relative to control; format: cell-based; conditions: Homo sapiens
HepG2 [19] = assay: Binding affinity to 2HA-tagged PXR fused HiBiT-tagged FKBP12 (F36V) mutant (unknown origin) expressed in HepG2 cells assessed as change in FKBP-PXR expression at 0.001 uM measured after 24 hrs by Western blot analysis relative to control; format: cell-based; conditions: Homo sapiens
[20] = biological target: T2, Protein cereblon/Peptidyl-prolyl cis-trans isomerase FKBP1A/Nuclear receptor subfamily 1 group I member 2; assay: (§2) Molecular glue activity at HA-tagged […]/2HA-tagged PXR fused HiBiT-tagged FKBP12 (F36V) mutant (unknown origin) expressed in HepG2 cells assessed as induction of PXR degradation by measuring change in CRBN expression at 10 uM measured after 24 hrs by Western blot analysis relative to control; format: cell-based; conditions: hepg2, 24 h
[21] = biological target: T2, Protein cereblon/Peptidyl-prolyl cis-trans isomerase FKBP1A/Nuclear receptor subfamily 1 group I member 2; assay: as §2, with “in FKBP-PXR” for “in CRBN”, “at 0.001” for “at 10”; format: cell-based; conditions: hepg2, 24 h
[22] = biological target: T2, Protein cereblon/Peptidyl-prolyl cis-trans isomerase FKBP1A/Nuclear receptor subfamily 1 group I member 2; assay: as §2, with “0.0001” for “10”; format: cell-based; conditions: hepg2, 24 h
[23] = biological target: T2, Protein cereblon/Peptidyl-prolyl cis-trans isomerase FKBP1A/Nuclear receptor subfamily 1 group I member 2; assay: as §2, with “0.001” for “10”; format: cell-based; conditions: hepg2, 24 h
[24] = biological target: T2, Protein cereblon/Peptidyl-prolyl cis-trans isomerase FKBP1A/Nuclear receptor subfamily 1 group I member 2; assay: (§3) Molecular glue activity at HA-tagged […]/2HA-tagged PXR fused HiBiT-tagged FKBP12 (F36V) mutant (unknown origin) expressed in HepG2 cells assessed as induction of PXR degradation by measuring change in CRBN expression at 1 uM measured after 24 hrs by Western blot analysis relative to control; format: cell-based; conditions: hepg2, 24 h
HepG2 [25] = assay: Binding affinity to 2HA-tagged PXR fused HiBiT-tagged FKBP12 (F36V) mutant (unknown origin) expressed in HepG2 cells assessed as change in FKBP-PXR expression at 0.1 uM measured after 24 hrs by Western blot analysis relative to control; format: cell-based; conditions: Homo sapiens
[26] = biological target: T2, Protein cereblon/Peptidyl-prolyl cis-trans isomerase FKBP1A/Nuclear receptor subfamily 1 group I member 2; assay: as §2, with “in FKBP-PXR” for “in CRBN”, “at 0.01” for “at 10”; format: cell-based; conditions: hepg2, 24 h
[27] = biological target: T2, Protein cereblon/Peptidyl-prolyl cis-trans isomerase FKBP1A/Nuclear receptor subfamily 1 group I member 2; assay: as §2, with “0.01” for “10”; format: cell-based; conditions: hepg2, 24 h
HepG2 [28] = assay: Binding affinity to 2HA-tagged PXR fused HiBiT-tagged FKBP12 (F36V) mutant (unknown origin) expressed in HepG2 cells assessed as change in FKBP-PXR expression at 0.01 uM measured after 24 hrs by Western blot analysis relative to control; format: cell-based; conditions: Homo sapiens
[29] = biological target: T2, Protein cereblon/Peptidyl-prolyl cis-trans isomerase FKBP1A/Nuclear receptor subfamily 1 group I member 2; assay: as §2, with “in FKBP-PXR” for “in CRBN”, “at 0.1” for “at 10”; format: cell-based; conditions: hepg2, 24 h
[30] = biological target: T2, Protein cereblon/Peptidyl-prolyl cis-trans isomerase FKBP1A/Nuclear receptor subfamily 1 group I member 2; assay: Molecular glue activity at HA-tagged […]/2HA-tagged PXR fused HiBiT-tagged FKBP12 (F36V) mutant (unknown origin) expressed in HepG2 cells assessed as induction of PXR degradation by measuring change in CRBN expression at 0.1 uM measured after 24 hrs by Western blot analysis relative to control; format: cell-based; conditions: hepg2, 24 h
HepG2 [31] = assay: Binding affinity to 2HA-tagged PXR fused HiBiT-tagged FKBP12 (F36V) mutant (unknown origin) expressed in HepG2 cells assessed as change in FKBP-PXR expression at 0.0001 uM measured after 24 hrs by Western blot analysis relative to control; format: cell-based; conditions: Homo sapiens
[32] = biological target: T2, Protein cereblon/Peptidyl-prolyl cis-trans isomerase FKBP1A/Nuclear receptor subfamily 1 group I member 2; assay: as §3, with “in FKBP-PXR” for “in CRBN”; format: cell-based; conditions: hepg2, 24 h

Chain of Protein cereblon/DNA damage-binding protein 1 (Q96SW2 whole entry): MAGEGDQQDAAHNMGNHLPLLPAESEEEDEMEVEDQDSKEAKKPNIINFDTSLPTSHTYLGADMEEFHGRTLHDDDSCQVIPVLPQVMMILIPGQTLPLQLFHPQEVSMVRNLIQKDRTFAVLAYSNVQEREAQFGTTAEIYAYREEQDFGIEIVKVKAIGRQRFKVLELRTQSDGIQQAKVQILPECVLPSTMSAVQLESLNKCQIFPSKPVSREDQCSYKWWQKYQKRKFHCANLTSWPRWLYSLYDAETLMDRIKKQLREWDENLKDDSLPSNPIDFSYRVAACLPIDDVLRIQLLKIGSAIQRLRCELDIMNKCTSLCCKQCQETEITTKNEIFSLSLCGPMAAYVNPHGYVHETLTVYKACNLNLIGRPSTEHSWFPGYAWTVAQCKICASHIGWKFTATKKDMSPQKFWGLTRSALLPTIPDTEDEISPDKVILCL
Chain of Protein cereblon/DNA damage-binding protein 1 (Q16531 whole entry, further chain): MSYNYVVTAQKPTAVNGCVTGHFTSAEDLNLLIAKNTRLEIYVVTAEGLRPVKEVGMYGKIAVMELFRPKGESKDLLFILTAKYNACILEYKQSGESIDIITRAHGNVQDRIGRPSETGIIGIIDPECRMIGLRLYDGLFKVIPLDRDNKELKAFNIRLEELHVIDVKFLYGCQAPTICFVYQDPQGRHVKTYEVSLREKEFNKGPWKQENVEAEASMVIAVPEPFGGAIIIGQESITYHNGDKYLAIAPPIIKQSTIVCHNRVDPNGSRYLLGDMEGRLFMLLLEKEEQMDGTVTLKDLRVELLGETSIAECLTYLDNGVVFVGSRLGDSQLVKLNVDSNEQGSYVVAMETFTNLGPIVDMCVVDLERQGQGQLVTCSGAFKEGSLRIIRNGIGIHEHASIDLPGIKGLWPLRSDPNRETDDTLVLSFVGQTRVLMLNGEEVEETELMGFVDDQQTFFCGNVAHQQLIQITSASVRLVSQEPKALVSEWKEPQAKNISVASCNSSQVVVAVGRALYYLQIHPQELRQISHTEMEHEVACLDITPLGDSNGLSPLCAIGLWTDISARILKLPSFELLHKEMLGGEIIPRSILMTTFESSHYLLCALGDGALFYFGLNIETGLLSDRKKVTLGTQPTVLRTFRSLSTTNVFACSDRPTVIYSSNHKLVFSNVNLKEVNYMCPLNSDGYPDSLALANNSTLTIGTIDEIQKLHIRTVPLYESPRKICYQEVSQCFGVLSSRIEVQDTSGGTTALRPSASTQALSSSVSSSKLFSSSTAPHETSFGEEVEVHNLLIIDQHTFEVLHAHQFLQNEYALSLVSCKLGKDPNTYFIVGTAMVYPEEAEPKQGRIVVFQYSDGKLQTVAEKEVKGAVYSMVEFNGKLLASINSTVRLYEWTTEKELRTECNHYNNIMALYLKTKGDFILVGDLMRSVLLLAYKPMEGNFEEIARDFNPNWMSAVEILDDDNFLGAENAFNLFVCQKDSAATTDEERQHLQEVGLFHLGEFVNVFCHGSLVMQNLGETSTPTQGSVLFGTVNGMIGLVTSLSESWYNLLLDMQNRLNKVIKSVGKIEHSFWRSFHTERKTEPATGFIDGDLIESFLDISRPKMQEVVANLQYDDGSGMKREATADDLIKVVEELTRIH
T2 sequence (P62942 2-108 F37V limits assumed, stated change not applied, one chain of several): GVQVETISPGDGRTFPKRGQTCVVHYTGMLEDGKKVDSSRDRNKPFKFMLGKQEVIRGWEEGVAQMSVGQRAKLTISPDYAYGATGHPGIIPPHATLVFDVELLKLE
T2 sequence (Q96SW2 whole entry, stated change not applied, one chain of several, the tested form may be a part): as the sequence (Q96SW2 whole entry) above
Chain of Eukaryotic peptide chain release factor GTP-binding subunit ERF3A (Homo sapiens) (P15170 whole entry): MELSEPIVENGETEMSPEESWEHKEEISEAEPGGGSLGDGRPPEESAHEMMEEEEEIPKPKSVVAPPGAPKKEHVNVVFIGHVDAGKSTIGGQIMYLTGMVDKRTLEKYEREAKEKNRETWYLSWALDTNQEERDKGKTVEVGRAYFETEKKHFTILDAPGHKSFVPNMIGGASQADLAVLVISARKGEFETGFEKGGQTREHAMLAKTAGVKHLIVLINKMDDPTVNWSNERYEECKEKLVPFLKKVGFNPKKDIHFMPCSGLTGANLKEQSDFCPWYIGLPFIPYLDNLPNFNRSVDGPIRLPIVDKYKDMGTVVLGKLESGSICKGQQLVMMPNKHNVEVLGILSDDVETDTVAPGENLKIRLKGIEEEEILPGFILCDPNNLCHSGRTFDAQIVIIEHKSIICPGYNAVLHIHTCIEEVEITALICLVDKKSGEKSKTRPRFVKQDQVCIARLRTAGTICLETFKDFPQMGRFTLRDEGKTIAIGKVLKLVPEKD

Structure (SMILES): COc1ccc(OC)c(-n2nnc(C(=O)Nc3cc(NC(=O)Nc4cccc5c4C(=O)N(C4CCC(=O)NC4=O)C5=O)cc(C(C)(C)C)c3)c2C)c1 (centres undefined)
EC50 [1]: 410 nM

Structure (SMILES): COc1ccc(OC)c(-n2nnc(C(=O)Nc3cc(OCC(=O)Nc4cccc5c4C(=O)N(C4CCC(=O)NC4=O)C5=O)cc(C(C)(C)C)c3)c2C)c1 (centres undefined)
EC50 [1]: > 333 nM

Activity [2]: Active
Activity [4]: Active
Activity ([9]; DDE = dose-dependent effect): Dde
Activity [13]: 50%
Structure (SMILES): COc1ccc(OC)c(-n2nnc(C(=O)Nc3cc(Oc4cccc5c4C(=O)N(C4CCC(=O)NC4=O)C5=O)cc(C(C)(C)C)c3)c2C)c1 (centres undefined)
Activity (SNU-C4 [3]): Active
Activity (SNU-C4 [5]): Active
Activity (SNU-C4 [6]): Active
Activity (SNU-C4 [7]): Active
CC50 (SNU-C4 [8]): 3.3 nM
Activity (SNU-C4 [10]): Active
Activity (SNU-C4 [11]): Active
Activity (SNU-C4 [12]): Active
EC50 [1]: 31 nM

Structure (SMILES): COc1ccc(OC)c(-n2nnc(C(=O)Nc3cc(OCCNc4cccc5c4C(=O)N(C4CCC(=O)NC4=O)C5=O)cc(C(C)(C)C)c3)c2C)c1 (centres undefined)
EC50 [1]: 23 nM

Activity [14]: Active
Structure (SMILES): Cc1ccc(NC(=O)NCc2ccc3c(c2)CN(C2CCC(=O)NC2=O)C3=O)cc1Cl (centres undefined)
CC50 (SNU-C4 [8]): 440 nM

fold change (FC) [15]: 1.4
fold change (FC) [16]: 0.8
fold change (FC) [20]: 3.6
fold change (FC) [21]: 0.7
fold change (FC) [22]: 0.9
fold change (FC) [23]: 0.9
fold change (FC) [24]: 2.2
Activity [9]: Active
fold change (FC) [26]: 0.5
fold change (FC) [27]: 1.1
fold change (FC) [29]: 0.5
fold change (FC) [30]: 1.3
fold change (FC) [32]: 0.8
Structure (SMILES): CC[C@H](C(=O)N1CCCC[C@H]1C(=O)O[C@H](CCc1ccc(OC)c(OC)c1)c1ccccc1OCC(=O)NCCCCCCOc1cccc2c1C(=O)N(C1CCC(=O)NC1=O)C2=O)c1cc(OC)c(OC)c(OC)c1 (some centres undefined)
fold change (FC) (HepG2 [17]): 1
fold change (FC) (HepG2 [18]): 0.9
fold change (FC) (HepG2 [19]): 1.3
fold change (FC) (HepG2 [25]): 1.1
fold change (FC) (HepG2 [28]): 1.2
fold change (FC) (HepG2 [31]): 1.1

Structure (SMILES): CC(C)(C)c1cc(N)cc(Oc2cccc3c2C(=O)N(C2CCC(=O)NC2=O)C3=O)c1 (centres undefined)
EC50 [1]: 14 nM

Structure (SMILES): CC(=O)Nc1cc(Oc2cccc3c2C(=O)N(C2CCC(=O)NC2=O)C3=O)cc(C(C)(C)C)c1 (centres undefined)
EC50 [1]: 11 nM

Structure (SMILES): CC(=O)Nc1cc(Nc2cccc3c2C(=O)N(C2CCC(=O)NC2=O)C3=O)cc(C(C)(C)C)c1 (centres undefined)
EC50 [1]: 3.2 nM

Structure (SMILES): COc1ccc(OC)c(-n2nnc(C(=O)Nc3cc(OC(=O)CNc4cccc5c4C(=O)N(C4CCC(=O)NC4=O)C5=O)cc(C(C)(C)C)c3)c2C)c1 (centres undefined)
EC50 [1]: 17 nM

Structure (SMILES): COc1ccc(OC)c(-n2nnc(C(=O)Nc3cc(NCCNc4cccc5c4C(=O)N(C4CCC(=O)NC4=O)C5=O)cc(C(C)(C)C)c3)c2C)c1 (centres undefined)
EC50 [1]: 24 nM

Structure (SMILES): COc1ccc(OC)c(-n2nnc(C(=O)Nc3cc(NC(=O)CNc4cccc5c4C(=O)N(C4CCC(=O)NC4=O)C5=O)cc(C(C)(C)C)c3)c2C)c1 (centres undefined)
EC50 [1]: 15 nM

Structure (SMILES): COc1ccc(OC)c(-n2nnc(S(=O)(=O)c3ccc(C(C)(C)C)cc3)c2C)c1
EC50 [1]: > 3000 nM
